Each structure is given as a SMILES string. Read-outs that look alike come from different tables or passages of the source.

For one experiment, the target named is USP30 (Homo sapiens (Human), UniProt Q70CQ3). The experiment is described as follows: Dundee MALDI-TOF mass spectrometry assay (IC50). Format: biochemical. To be noted: USP30 25 ng/μl, K48-linked diubiquitin 5.6 μM, avg, read-out: Dundee IC50 μM (avg in vitro MS assay). Here is the method: Compounds were tested in a MALDI-TOF assay based on the paper by Ritorto et al. (Ritorto et al. Screening of DUB activity and specificity by MALDI-TOF mass spectrometry. Nat. […] USP30 (25 ng/μl) tested against K48-linked diubiquitin (5.6 μM). USP30 was diluted in a buffer containing 40 mM Tris, 0.01% BSA, 1 mM DTT and K48 in 40 mM Tris, 0.01% BSA. The compounds were pre-incubated with the USP30 for 5 mins at room temp before the K48 dimer addition. The assay mixture was then incubated for 45 mins at room temp. The assay was stopped by the addition of TFA to a final concentration of 2% (v/v). […] Then 250 nl of these solutions were spotted onto an MTP AnchorChip 1,536 TF and this is analysed on the Bruker rapifleX MALDI-TOF.

Experiment [1] has as its target recombinant USP30 (amino acids 57-517 of the human sequence) (Homo sapiens (Human), UniProt Q70CQ3). The experiment is described as follows: In vitro USP30 biochemical assay (Ubiquitin-Rhodamine).
Setting [2] is: USP30 IC50 μM (avg), Ubiquitin-Rhodamine substrate 25 nM, 1.5 nM recombinant USP30.
The mark [3] stands for this setting: read-out: USP30 IC50 μM (avg), Ubiquitin-Rhodamine substrate 25 nM, 1.5 nM recombinant USP30.

Chain of USP30 (Q70CQ3 whole entry): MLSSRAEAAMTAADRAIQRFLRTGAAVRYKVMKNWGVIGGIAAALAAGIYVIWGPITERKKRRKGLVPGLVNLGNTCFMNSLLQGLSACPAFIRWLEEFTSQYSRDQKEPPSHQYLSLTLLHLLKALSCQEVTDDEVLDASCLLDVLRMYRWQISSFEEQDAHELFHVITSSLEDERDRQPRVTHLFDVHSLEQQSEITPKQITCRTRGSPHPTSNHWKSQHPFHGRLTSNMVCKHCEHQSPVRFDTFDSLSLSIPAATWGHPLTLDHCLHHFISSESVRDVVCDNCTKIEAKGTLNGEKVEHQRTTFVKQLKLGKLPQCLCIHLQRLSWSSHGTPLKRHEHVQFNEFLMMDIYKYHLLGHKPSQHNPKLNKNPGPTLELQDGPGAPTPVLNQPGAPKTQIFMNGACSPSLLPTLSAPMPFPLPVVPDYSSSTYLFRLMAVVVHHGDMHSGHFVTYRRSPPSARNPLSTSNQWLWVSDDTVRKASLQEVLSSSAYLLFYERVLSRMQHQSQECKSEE
Chain of recombinant USP30 (amino acids 57-517 of the human sequence) (Q70CQ3 57-517): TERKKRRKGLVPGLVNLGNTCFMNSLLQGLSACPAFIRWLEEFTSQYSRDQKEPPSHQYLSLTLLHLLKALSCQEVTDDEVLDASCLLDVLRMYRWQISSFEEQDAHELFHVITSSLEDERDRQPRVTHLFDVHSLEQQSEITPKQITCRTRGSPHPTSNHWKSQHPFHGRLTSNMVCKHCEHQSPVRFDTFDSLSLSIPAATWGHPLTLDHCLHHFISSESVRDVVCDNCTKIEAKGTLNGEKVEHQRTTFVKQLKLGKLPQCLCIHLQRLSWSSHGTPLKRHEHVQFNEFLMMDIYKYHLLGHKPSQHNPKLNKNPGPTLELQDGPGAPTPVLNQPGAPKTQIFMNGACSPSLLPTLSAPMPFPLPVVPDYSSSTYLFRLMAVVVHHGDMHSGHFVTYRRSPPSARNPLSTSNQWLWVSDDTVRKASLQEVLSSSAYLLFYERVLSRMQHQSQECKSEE

As to `O=C(N[C@@H](Cc1ccccc1)C(=O)Nc1ccc(S(=O)(=O)NC2COC2)cn1)c1ccc(F)cc1` [Compound I-119, (S)-4-fluoro-N-(1-(5-(N-oxetan-3-ylsulfamoyl)pyridin-2-ylamino)-1-oxo-3-phenylpropan-2-yl)benzamide], the half-maximal inhibitory concentration (IC50) (on USP30; in experiment [1] (setting [2])) was 0.05 to 1 µM each time.

As to `CC(C)(CN1CCOCC1)NS(=O)(=O)c1ccc(NC(=O)[C@H](Cc2ccccc2)NC(=O)c2ccc(F)cc2)cc1` [Compound I-162, (S)-4-fluoro-N-(1-(4-(N-(2-methyl-1-morpholinopropan-2-yl)sulfamoyl)phenylamino)-1-oxo-3-phenylpropan-2-yl)benzamide], the 50% inhibitory concentration (IC50) (at USP30; in experiment [1] (setting [3])) was below 0.05 µM throughout.

With `CC(C)(C)NS(=O)(=O)N1CCCc2c(NC(=O)[C@H](Cc3ccccc3)NC(=O)C3CCCCC3)cccc21` [Compound I-129, (S)-N-(1-(1-(N-tert-butylsulfamoyl)-1,2,3,4-tetrahydroquinolin-5-ylamino)-1-oxo-3-phenylpropan-2-yl)cyclohexanecarboxamide], the half-inhibitory concentration (IC50) (on USP30; in experiment [1] (setting [2])) was 1 to 10 µM throughout.

Take `O=C(N[C@@H](Cc1ccccc1)C(=O)Nc1ccc(S(=O)(=O)NC23CC(C2)C3)cn1)c1ccc(F)cc1` [Compound I-118, (S)-N-(1-(5-(N-bicyclo[1.1.1]pentan-1-ylsulfamoyl)pyridin-2-ylamino)-1-oxo-3-phenylpropan-2-yl)-4-fluorobenzamide]: the IC50 (on USP30; in experiment [1] (setting [2])) was 0.05 to 1 µM in each case.

In the case of `O=C(N[C@@H](Cc1ccccc1)C(=O)Nc1ccc(S(=O)(=O)NCCN2CCOCC2)nc1)c1ccc(F)cc1` [Compound I-111, (S)-4-fluoro-N-(1-(6-(N-(2-morpholinoethyl)sulfamoyl)pyridin-3-ylamino)-1-oxo-3-phenylpropan-2-yl)benzamide], the half-maximal inhibitory concentration (IC50) (on USP30; in experiment [1] (setting [2])) was 0.05 to 1 µM throughout.

Take `CC(C)(C)CS(=O)(=O)c1ccc(NC(=O)[C@H](Cc2ccccc2)NC(=O)c2ccc(F)cc2)cc1` [Compound I-2, (S)-4-fluoro-N-(1-(4-(2,2-Dimethyl-propylsulfonyl)phenylamino)-1-oxo-3-phenylpropan-2-yl)benzamide]: the IC50 – broadly, the point on the concentration scale where inhibition reaches its midpoint – on USP30 was in the range of 0.05 to 1 µM.

As to `CNS(=O)(=O)c1ccc(NC(=O)[C@H](Cc2ccccc2)NC(=O)c2ccc(F)cc2)cc1` [Compound I-30, (S)-4-fluoro-N-(1-(4-(N-methylsulfamoyl)phenylamino)-1-oxo-3-phenylpropan-2-yl)benzamide], the half-maximal inhibitory concentration (IC50) (at USP30; in experiment [1] (setting [2])) was 0.05 to 1 µM in each case.

Consider `O=C(NC1(C(=O)Nc2ccc(S(=O)(=O)NC34CC(C3)C4)cc2)Cc2ccccc2C1)c1ccc(F)cc1` [Compound I-102, N-(4-(N-bicyclo[1.1.1]pentan-1-ylsulfamoyl)phenyl)-2-(4-fluorobenzamido)-2,3-dihydro-1H-indene-2-carboxamide], for which the half-maximal inhibitory concentration (IC50) at USP30 was 0.05 to 1 µM; in experiment [1] (setting [3]), above 10 µM.

Turning to `CC(C)(C)NS(=O)(=O)c1ccc(NC(=O)[C@H](Cc2c[nH]c3ccccc23)NC(=O)c2ccc(F)cc2)cc1` [Compound I-1, (S)-N-(1-(4-(N-tert-butylsulfamoyl)phenylamino)-3-(1H-indol-3-yl)-1-oxopropan-2-yl)-4-fluorobenzamide], at USP30, the IC50 lay within 0.05 to 1 µM.

As for `COc1cc(NC(=O)[C@H](Cc2ccccc2)NC(=O)c2ccc(F)cc2)ccc1S(=O)(=O)NC12CC(C1)C2` [Compound I-148, (S)-N-(1-(4-(N-bicyclo[1.1.1]pentan-1-ylsulfamoyl)-3-methoxyphenylamino)-1-oxo-3-phenylpropan-2-yl)-4-fluorobenzamide], the concentration for half-maximal inhibition (IC50) was below 0.05 µM at USP30 and 0.05 to 1 µM in experiment [1] (setting [2]).

As for `CC(C)(C)NS(=O)(=O)c1ccc(NC(=O)[C@H](Cc2ccccc2)NC(=O)c2ccc(F)cc2)s1` [Compound I-63, (S)-N-(1-(5-(N-tert-butylsulfamoyl)thiophen-2-ylamino)-1-oxo-3-phenylpropan-2-yl)-4-fluorobenzamide], the half-inhibitory concentration (IC50) at USP30 was 0.05 to 1 µM.

For the compound `O=C(N[C@@H](Cc1ccccc1)C(=O)Nc1ccc(S(=O)(=O)NC2CC2)cc1)c1ccc(F)cc1` [Compound I-6, (S)-N-(1-(4-(N-cyclopropylsulfamoyl)phenylamino)-1-oxo-3-phenylpropan-2-yl)-4-fluorobenzamide], the IC50 on USP30 was below 0.05 µM.

As to `CC(C)(C)CS(=N)(=O)c1ccc(NC(=O)[C@H](Cc2ccccc2)NC(=O)c2ccc(F)cc2)cc1` (stereo partly drawn) [Compound I-3, N-((2S)-1-(4-(2,2-dimethylpropylsulfonimidoyl)phenylamino)-1-oxo-3-phenylpropan-2-yl)-4-fluorobenzamide], at USP30, the IC50 was above 10 µM.

With `CC(C)(C)NS(=O)(=O)c1ccc(NC(=O)[C@H](Cc2ccccc2)NC(=O)c2ccc(F)cc2)nc1` [Compound I-61, (S)-N-(1-(5-(N-tert-butylsulfamoyl)pyridin-2-ylamino)-1-oxo-3-phenylpropan-2-yl)-4-fluorobenzamide], the IC50 at USP30 was below 0.05 µM.

Turning to `O=C(N[C@@H](Cc1ccccc1)C(=O)Nc1ccc(S(=O)(=O)NC2CCCCC2)cc1)c1ccc(F)cc1` [Compound I-31, (S)-N-(1-(4-(N-cyclohexylsulfamoyl)phenylamino)-1-oxo-3-phenylpropan-2-yl)-4-fluorobenzamide], the IC50 at USP30 fell in the range of 0.05 to 1 µM.

As for `CC(C)(C)NS(=O)(=O)c1ccc(NC(=O)[C@H](Cc2ccccc2)N2Cc3ccccc3C2=O)cc1` [Compound I-69, (S)-N-(4-(N-tert-butylsulfamoyl)phenyl)-2-(1-oxoisoindolin-2-yl)-3-phenylpropanamide], the half-maximal inhibitory concentration (IC50) at USP30 was in the range of 1 to 10 µM.

With `CC[C@@H](C)NS(=O)(=O)c1ccc(NC(=O)[C@H](Cc2ccccc2)NC(=O)c2ccc(F)cc2)cc1` [Compound I-12, N-((S)-1-((4-(N-((R)-sec-butyl)sulfamoyl)phenyl)amino)-1-oxo-3-phenylpropan-2-yl)-4-fluorobenzamide], on USP30, the IC50 is below 0.05 µM.

`O=C(N[C@@H](Cc1ccccc1)C(=O)Nc1ccc(S(=O)(=O)Nc2ccccc2)cc1)c1ccc(F)cc1` [Compound I-32, (S)-4-fluoro-N-(1-oxo-3-phenyl-1-(4-(N-phenylsulfamoyl)phenylamino)propan-2-yl)benzamide]: the IC50 at USP30 lay within 0.05 to 1 µM.

Turning to `C[C@@H](NS(=O)(=O)c1ccc(NC(=O)[C@H](Cc2ccccc2)NC(=O)c2ccc(F)cc2)cc1)C1CC1` [Compound I-67, N-((S)-1-(4-(N-((R)-1-cyclopropylethyl)sulfamoyl)phenylamino)-1-oxo-3-phenylpropan-2-yl)-4-fluorobenzamide], the half-maximal inhibitory concentration (IC50) on USP30 was below 0.05 µM.

In the case of `O=C(N[C@@H](Cc1ccccc1)C(=O)Nc1ccc(S(=O)(=O)NC2CCCC2)cc1)c1ccc(F)cc1` [Compound I-8, (S)-N-(1-(4-(N-cyclopentylsulfamoyl)phenylamino)-1-oxo-3-phenylpropan-2-yl)-4-fluorobenzamide], on USP30, the 50% inhibitory concentration (IC50) is below 0.05 µM.

Turning to `CC(C)(C)NS(=O)(=O)c1ccc(NC(=O)C2Cc3ncccc3N2C(=O)c2ccc(F)cc2)cc1` (stereo not drawn) [Compound I-54, N-(4-(N-tert-butylsulfamoyl)phenyl)-1-(4-fluorobenzoyl)-2,3-dihydro-1H-pyrrolo[3,2-b]pyridine-2-carboxamide], the IC50 at USP30 is above 1 µM.

Turning to `CCC(C)(C)NS(=O)(=O)c1ccc(NC(=O)[C@H](Cc2ccccc2)NC(=O)c2ccc(F)cc2)cc1` [Compound I-24, (S)-4-fluoro-N-(1-oxo-1-(4-(N-tert-pentylsulfamoyl)phenylamino)-3-phenylpropan-2-yl)benzamide], on USP30, the half-inhibitory concentration (IC50) was below 0.05 µM.

As for `CC(C)(C)NS(=O)(=O)c1ccc(NC(=O)[C@H](Cc2ccccc2)NC(=O)c2ccc(F)cc2)cn1` [Compound I-62, (S)-N-(1-(6-(N-tert-butylsulfamoyl)pyridin-3-ylamino)-1-oxo-3-phenylpropan-2-yl)-4-fluorobenzamide], at USP30, the IC50 is below 0.05 µM.

For the compound `C#CC(C)(C)NS(=O)(=O)c1ccc(NC(=O)[C@H](Cc2ccccc2)NC(=O)c2ccc(F)cc2)cn1` [Compound I-177, (S)-4-fluoro-N-(1-(6-(N-(2-methylbut-3-yn-2-yl)sulfamoyl)pyridin-3-ylamino)-1-oxo-3-phenylpropan-2-yl)benzamide], the concentration for half-maximal inhibition (IC50) in experiment [1] (setting [2]) lay within 0.05 to 1 µM.

On to `COc1cc(S(=O)(=O)NC23CC(C2)C3)ccc1NC(=O)[C@H](Cc1ccccc1)NC(=O)c1ccc(F)cc1` [Compound I-145, (S)-N-(1-(4-(N-bicyclo[1.1.1]pentan-1-ylsulfamoyl)-2-methoxyphenylamino)-1-oxo-3-phenylpropan-2-yl)-4-fluorobenzamide], for which the IC50 in experiment [1] (setting [2]) lay in the range of 1 to 10 µM.

Regarding `O=C(N[C@@H](Cc1ccccc1)C(=O)Nc1ccc(S(=O)(=O)NCC2CC2)cc1)c1ccc(F)cc1` [Compound I-9, (S)-N-(1-(4-(N-(cyclopropylmethyl)sulfamoyl)phenylamino)-1-oxo-3-phenylpropan-2-yl)-4-fluorobenzamide], the IC50 on USP30 is below 0.05 µM.

Regarding `O=C(N[C@@H](Cc1ccccc1)C(=O)Nc1ccc(S(=O)(=O)NC2CCC2)cc1)c1ccc(F)cc1` [Compound I-7, (S)-N-(1-(4-(N-cyclobutylsulfamoyl)phenylamino)-1-oxo-3-phenylpropan-2-yl)-4-fluorobenzamide], the IC50 at USP30 is below 0.05 µM.

With `N#Cc1cc(NC(=O)[C@H](Cc2ccccc2)NC(=O)c2ccc(F)cc2)ccc1S(=O)(=O)NC12CC(C1)C2` [Compound I-166, (S)-N-(1-(4-(N-bicyclo[1.1.1]pentan-1-ylsulfamoyl)-3-cyanophenylamino)-1-oxo-3-phenylpropan-2-yl)-4-fluorobenzamide], the IC50 in experiment [1] (setting [2]) lay within 0.05 to 1 µM.

These data come from patent US11845724B2, “USP30 inhibitors and uses thereof” (Vincere Biosciences, Inc., priority 2019, dated 2023).
